In paper PMC8803428, “Pharmacokinetics of Ginsenoside Rb1, Rg3, Rk1, Rg5, F2, and Compound K from Red Ginseng Extract in Healthy Korean Volunteers” (Evidence-based Complementary and Alternative Medicine : eCAM, 2022):
Like-named read-outs stand apart in the source and are kept apart here. Each block holds one compound with its values, some of them ahead of it.

Assays:
[1] = Pharmacokinetics of ginsenosides in plasma after a single oral dose of RG or BRG capsules in healthy Korean men (LC-MS/MS); assay type: in vivo, human; details: for AUC(0-t): read-out: AUC(0–t); for AUC(0-inf): read-out: AUC(0–∞)
Description: This study was designed as a randomized, open-label, single-dose, crossover study with washout every 1 week to evaluate the pharmacokinetics and safety of ginsenosides. Subjects were randomly assigned to either the RG or BRG group during the first period of the study (Figure 2). After 1 week of the washout period, other products that were not received in the first period were provided. All enrolled subjects were hospitalized at Bestian Clinical Trial Center on the day before taking RG or BRG. Subjects were provided regular meals, and additional food intake was restricted after the meal. The next day, the subjects who had maintained the fasting state for 10 h took the capsules corresponding to 5 g of RG and BRG orally. Water was restricted for 1 h before and after intake, and food intake was restricted for 4 h after administration. After 4 h, all subjects received a standardized meal. In addition, lying down or sleeping was prohibited for 8 h after oral administration. Blood samples (5 mL) were collected before dosing and at each time point (0, 0.5, 1, 2, 4, 6, 8, 10, 12, and 24 h) after dosing. All blood samples were collected in heparin-treated tubes. The blood samples were promptly centrifuged at 3,000 rpm for 10 min at 4°C, and the plasma samples obtained were stored in a deep freezer at −70 ± 10°C until assay.
All analyses were performed using an Agilent 1200 series HPLC system (Agilent) with a Luna Phenyl-Hexyl column (2.0 × 150 mm, 5 μm; Phenomenex, CA, USA). The mobile phase comprised water (solvent A) and acetonitrile (solvent B) containing 0.1% formic acid. The flow rate of the mobile phase was 0.25–0.35 mL/min. The initial condition of 70% solvent A was set to 5% solvent A over 15 min. The content of ginsenosides in human plasma was measured using an API 5500 mass spectrometer (AB Sciex, Foster City, CA, USA) capable of multiple reaction monitoring (MRM). The parent-daughter ion pairs monitored were 845.5 ⟶ 799.6 for Rg1, 1153.6 ⟶ 1107.5 for Rb1, 829.4 ⟶ 783.5 for Rg3, and F2, 811.4 ⟶ 161.0 for Rg5 and Rk1, 667.4 ⟶ 161.0 for CK, and 825.4 ⟶ 779.3 for digoxin as an IS in the negative ion mode. Nitrogen gas was used in the nebulizer and the collision cell. The ion spray voltage was set to 5500 V.
Standard plasma samples were prepared such that each ginsenoside was in the concentration range of 0.5–100 ng/mL; 10 μL of a standard mixture of six kinds of ginsenosides (Rg1, Rb1, Rg5 + Rk1, F2, and CK) was added to 90 μL of blank human plasma. Rg3 was prepared in the concentration range of 0.2–40 ng/mL. Standard plasma samples (100 μL) were added to 200 μL of methanol containing 50 ng/mL digoxin, an IS. These were mixed for 1 min and then centrifuged at 12,000 rpm for 5 min at 4°C. Then, 100 μL of the supernatant was transferred to an LC vial, and 10 μL was injected into the LC-MS/MS system. Plasma samples stored at −70°C were thawed at room temperature. Samples for LC-MS/MS analysis were pretreated in the same manner as standard plasma samples.
Plasma concentrations of seven ginsenosides were calculated from calibration curves by calculating the ratio of the peak area of the test substance to the peak area of the IS. The following pharmacokinetic parameters were measured using Phoenix WinNonlin 6.3 (Pharsight Co, CA, USA): time to reach maximum observed plasma drug concentration (Tmax), maximum observed plasma drug concentration (Cmax), area under the plasma drug concentration-time curve from 0 h to the final measured time (AUC(0–t)), area under the plasma drug concentration–time curve from 0 h to infinity (AUC(0–∞)), and terminal elimination half-life (t1/2).

[2] = Stability of the ginsenosides in human plasma (QC samples, LC-MS/MS method validation); assay type: in vitro ADME
Protocol: The LC-MS/MS method was validated to determine selectivity, lower limits of quantification (LLOQ), accuracy, precision, recovery, matrix effect, and stability, according to the guideline for validating the bioanalytical method. The selectivity of the method was evaluated by comparison of blank plasma from six different men to the corresponding spiked plasma sample at the level of LLOQ to investigate the potential interferences at the LC chromatographic conditions for ginsenoside analytes and IS. The signal-to-noise ratio (S/N) of the LLOQ sample was at least five times the response compared to the blank samples. Each calibration curve was constructed by plotting the peak area ratio (y) of the analyte to IS against the spiked concentrations (x) of each analyte. Linearity was assessed by weighted (1/x^2) least squares regression analysis. The LLOQ was defined as the lowest concentration on the calibration curve with an S/N ratio of 10, where the precision and accuracy bias were within ±20% by five replicate analyses. The intra- and interday precision and accuracy assessments were performed at four concentrations with five replicates on the same day and three consecutive days, respectively. The acceptance criterion recommended by the guideline of precision and the accuracy was ±15% of the nominal concentration. The recovery of the seven ginsenosides was determined at three QC levels with three replicates by comparing the peak areas of plasma extracts spiked with analytes before extraction with those of the postextraction spiked samples at the same concentration. The matrix effects were investigated by comparing the peak areas of the analytes dissolved in the pretreated blank plasma with the corresponding concentrations prepared in the reconstitution solution with three replicates. The stability of the analytes in human plasma was assessed by analyzing five replicates of plasma samples at low, medium, and high QC levels under four different conditions. Short-term stability was evaluated after the exposure of QC samples to room temperature for 19 h before processing and analysis. The freeze and thaw stability was tested after three repeated cycles of thawing at room temperature and freezing at approximately −70°C. The long-term stability was assessed after storage at approximately −70°C for 50 days. The post-preparative stability was examined after the exposure of processed samples at ambient temperature (stored in an HPLC autosampler) for 34 h.

[3] = parameters: method as in earlier work; details: after oral Korean Red ginseng extract, ref 25 (Kim et al.); cited from earlier work
[4] = male, human, plasma, po, 5 g, plasma, after single oral 5 g BRG, n = 13, mean ± SD
[5] = male, human, plasma, po, 5 g, plasma, after single oral 5 g RG, n = 13, mean ± SD

detection in plasma at the initial time point (0 h) of the second treatment period ([1]; after 1 week washout): did not detect
Cmax ([1]; male, human, in vivo, po, C max): 4.04 ± 1.71 ng/mL
half-life ([1]; male, human, plasma, oral, 5 g, range over RG and BRG groups, read-out: t1/2): 38 to 46 h
AUC(0-t) [1, 4]: 56.9 ± 19.6 ng·h/mL
AUC(0-inf) [1, 4]: 182 ± 94.4 ng·h/mL
Cmax ([1]; male, human, plasma, po, 5 g, plasma, after single oral 5 g BRG, n = 13, mean ± SD, read-out: C max): 3.19 ± 1.13 ng/mL
half-life ([1]; male, human, plasma, po, 5 g, plasma, after single oral 5 g BRG, n = 13, mean ± SD, read-out: T 1/2 (converted)): 38.1 ± 13.5 h
Tmax ([1]; male, human, plasma, po, 5 g, plasma, after single oral 5 g BRG, n = 13, mean ± SD, read-out: T max): 6.92 ± 1.55 h
AUC(0-t) [1, 5]: 73.2 ± 29.8 ng·h/mL
AUC(0-inf) [1, 5]: 257 ± 115 ng·h/mL
half-life ([1]; male, human, plasma, po, 5 g, plasma, after single oral 5 g RG, n = 13, mean ± SD, read-out: T 1/2 (converted)): 45.9 ± 21.9 h
Tmax ([1]; male, human, plasma, po, 5 g, plasma, after single oral 5 g RG, n = 13, mean ± SD, read-out: T max): 7.23 ± 1.92 h
Freeze-thaw stability, concentration found ([2]; human plasma, 3 cycles, 1.5 ng/mL): 98.65 ± 0.66%
Freeze-thaw stability, concentration found ([2]; human plasma, 3 cycles, 80 ng/mL): 100.70 ± 2.36%
Short-term stability, concentration found ([2]; human plasma, 19 h at room temperature, 1.5 ng/mL): 98.19 ± 1.40%
Short-term stability, concentration found ([2]; human plasma, 19 h at room temperature, 80 ng/mL): 96.93 ± 5.41%
Long-term stability, concentration found ([2]; human plasma, 50 days at -70℃, 1.5 ng/mL): 102.01 ± 1.78%
Long-term stability, concentration found ([2]; human plasma, 50 days at -70℃, 80 ng/mL): 105.06 ± 2.73%
Autosampler stability, concentration found ([2]; processed plasma samples, 34 h at ambient temperature, 1.5 ng/mL): 97.98 ± 3.55%
Autosampler stability, concentration found ([2]; processed plasma samples, 34 h at ambient temperature, 80 ng/mL): 100.35 ± 5.32%
SMILES: CC(C)=CCC[C@](C)(O[C@@H]1O[C@H](CO[C@@H]2O[C@H](CO)[C@@H](O)[C@H](O)[C@H]2O)[C@@H](O)[C@H](O)[C@H]1O)[C@H]1CC[C@]2(C)[C@@H]1[C@H](O)C[C@@H]1[C@@]3(C)CC[C@H](O[C@@H]4O[C@H](CO)[C@@H](O)[C@H](O)[C@H]4O[C@@H]4O[C@H](CO)[C@@H](O)[C@H](O)[C@H]4O)C(C)(C)[C@@H]3CC[C@]12C [Rb1, ginsenoside Rb1]
Cmax [3]: 3.94 ± 1.97 ng/mL

detection in the plasma samples ([1]; after oral RG or BRG): not detected
SMILES: CC(C)=CCC[C@](C)(O[C@@H]1O[C@H](CO)[C@@H](O)[C@H](O)[C@H]1O)[C@H]1CC[C@]2(C)[C@@H]1[C@H](O)C[C@@H]1[C@@]3(C)CC[C@H](O)C(C)(C)[C@@H]3[C@@H](O[C@@H]3O[C@H](CO)[C@@H](O)[C@H](O)[C@H]3O)C[C@]12C [Rg1, ginsenoside Rg1]

detection in plasma at the initial time point (0 h) of the second treatment period ([1]; in vivo): did not detect
T 1/2 ([1]; male, human, in vivo, po): 5.70 ± 0.73^∗ h
T max ([1]; male, human, in vivo, po): 4.23 ± 1.54 h
half-life ([1]; male, human, in vivo, po, T 1/2): 5.58 ± 3.63 h
Tmax ([1]; male, human, in vivo, po, T max): 3.85 ± 1.28 h
Freeze-thaw stability, concentration found ([2]; human, 0.6 ng/mL): 97.73 ± 3.53%
Freeze-thaw stability, concentration found ([2]; human, 32 ng/mL): 95.33 ± 2.75%
Short-term stability, concentration found ([2]; human, 19 h, 0.6 ng/mL): 102.32 ± 2.68%
Short-term stability, concentration found ([2]; human, 19 h, 32 ng/mL): 96.32 ± 1.48%
Autosampler stability, concentration found ([2]; human, 34 h, 0.6 ng/mL): 102.95 ± 5.52%
Autosampler stability, concentration found ([2]; human, 34 h, 32 ng/mL): 97.25 ± 1.45%
Long-term stability, concentration found ([2]; human, 50 days, 0.6 ng/mL): 104.15 ± 8.68%
Long-term stability, concentration found ([2]; human, 50 days, 32 ng/mL): 99.84 ± 3.12%
SMILES: CC(C)=CCC[C@](C)(O)[C@H]1CC[C@]2(C)[C@@H]1[C@H](O)C[C@@H]1[C@@]3(C)CC[C@H](O[C@@H]4O[C@H](CO)[C@@H](O)[C@H](O)[C@H]4O[C@@H]4O[C@H](CO)[C@@H](O)[C@H](O)[C@H]4O)C(C)(C)[C@@H]3CC[C@]12C [Rg3, ginsenoside Rg3]
